Measured values published in patent US10858335B2 (Rigel Pharmaceuticals, Inc., priority 2014, dated 2020).

The molecules below were run on GDF8 signaling (p-SMAD-3 (Ser423/425)) (assay: AlphaScreen SureFire SMAD3 (p-Ser423/425) assay, GDF8-stimulated cells (GDF pSMAD)). Details: MPC11; GDF8-stimulated; p-SMAD3 AlphaScreen; read-out: GDF pSMAD (MPC11) (inhibition of GDF8 signaling).
Type: cell-based

Compound	IC50 [µM]
Cc1cc(-c2ncccc2-c2ccn3ncc(C(=O)NC4CC5CCC(C4)N5C)c3c2)ccc1F (stereo not drawn) [compound 715, exo-5-(2-(4-Fluoro-3-methylphenyl)pyridin-3-yl)-N-(8-methyl-8-azabicyclo[3.2.1]octan-3-yl)pyrazolo[1,5-a]pyridine-3-carboxamide]	2.03

Same assay, conditions: Mus musculus, MPC-11, GDF8-stimulated pSMAD3, MPC11; tested as the salt form given; read-out: GDF pSMAD (MPC11) (μM), inhibition of GDF8 signaling

Compound	IC50 [µM]
Nc1ncnc2ccc(-c3cccnc3-c3cc(OC(F)(F)F)ccc3Cl)cc12 [compound 1009, 6-(2-(2-chloro-5-(trifluoromethoxy)phenyl)pyridin-3-yl)quinazolin-4-amine]	3.29
Cc1ccc(C)c(-c2ncccc2-c2ccc3ncnc(N)c3c2)c1 [compound 983, 6-(2-(2,5-dimethylphenyl)pyridin-3-yl)quinazolin-4-amine]	1.46
COc1cnc(-c2ccc(F)c(Cl)c2)c(-c2ccc3ncnc(N)c3c2)c1 [compound 992, 6-(2-(3-chloro-4-fluorophenyl)-5-methoxypyridin-3-yl)quinazolin-4-amine]	1.86
Cc1cc(-c2cccnc2-c2ccc(F)c(Cl)c2)cc2c(N)ncnc12 [compound 985, 6-(2-(3-chloro-4-fluorophenyl)pyridin-3-yl)-8-methylquinazolin-4-amine]	2.18
Cc1ccc(Cl)c(-c2ncccc2-c2ccc3ncnc(N)c3c2)c1 [compound 984, 6-(2-(2-chloro-5-methylphenyl)pyridin-3-yl)quinazolin-4-amine]	0.45

Same assay, conditions: Mus musculus, MPC-11, MPC11; GDF8-stimulated; p-SMAD3 AlphaScreen; read-out: GDF pSMAD (MPC11) (inhibition of GDF8 signaling)

Compound	IC50 [µM]
Clc1ccc(Cl)c(-c2ncccc2-c2ccc3nccn3c2)c1 [compound 872, 6-(2-(2,5-Dichlorophenyl)pyridin-3-yl)imidazo[1,2-a]pyridine]	0.775
Cc1c(-c2cccnc2-c2ccc(F)c(Cl)c2)ccc2ncnn12 [compound 810, 6-(2-(3-Chloro-4-fluorophenyl)pyridin-3-yl)-5-methyl-[1,2,4]triazolo[1,5-a]pyridine]	5.78
O=c1cnc2ccc(-c3cccnc3-c3cc(Cl)ccc3F)cc2[nH]1 [compound 892, 7-(2-(5-Chloro-2-fluorophenyl)pyridin-3-yl)quinoxalin-2(1H)-one]	0.426
Cc1cc(-c2ncccc2-c2ccc3ccnc(N)c3c2)ccc1F [compound 298, 7-(2-(4-Fluoro-3-methylphenyl)pyridin-3-yl)isoquinolin-1-amine]	0.999
Cc1cc(-c2ncc(NCc3ccc(O)c(F)c3)cc2-c2ccc3ncsc3c2)ccc1F [compound 369, 4-(((5-(Benzo[d]thiazol-6-yl)-6-(4-fluoro-3-methylphenyl)pyridin-3-yl)amino)methyl)-2-fluorophenol]	0.193
Fc1ccc(-c2ncccc2-c2ccc3ncncc3c2)cc1Cl [compound 506, 6-(2-(3-Chloro-4-fluorophenyl)pyridin-3-yl)quinazoline]	1.83
Cc1cccc(-c2ncccc2-c2ccc3ncc(CO)n3c2)c1 [compound 566, (6-(2-(m-Tolyl)pyridin-3-yl)imidazo[1,2-a]pyridin-3-yl)methanol]	0.342
Cc1cc(-c2ncc(NCc3ccc(Cl)nc3)cc2-c2ccc3ncsc3c2)ccc1F [compound 321, 5-(Benzo[d]thiazol-6-yl)-N-((6-chloropyridin-3-yl)methyl)-6-(4-fluoro-3-methylphenyl)pyridin-3-amine]	0.679
COc1cc(-c2cnc3ccc(-c4cccnc4-c4cccc(C)c4)cn23)cc(OC)c1OC [compound 578, 6-(2-(m-Tolyl)pyridin-3-yl)-3-(3,4,5-trimethoxyphenyl)imidazo[1,2-a]pyridine]	2.23
Cc1cc(-c2ncccc2-c2ccn3ncc(C(=O)NCCN)c3c2)ccc1F [compound 683, N-(2-Aminoethyl)-5-(2-(4-fluoro-3-methylphenyl)pyridin-3-yl)pyrazolo[1,5-a]pyridine-3-carboxamide]	0.234
Nc1ncnc2ccc(-c3cccnc3-c3cc(F)ccc3Cl)cc12 [compound 504, 6-(2-(2-Chloro-5-fluorophenyl)pyridin-3-yl)quinazolin-4-amine]	4.96
Cc1cc(-c2ncccc2-c2ccc3ncc(C(=O)Nc4ccncc4)n3c2)ccc1F [compound 654, 6-(2-(4-Fluoro-3-methylphenyl)pyridin-3-yl)-N-(pyridin-4-yl)imidazo[1,2-a]pyridine-3-carboxamide]	0.553
Fc1ccc(-c2ncccc2-c2ccc3nccn3c2)cc1Cl [compound 687, 6-(2-(3-Chloro-4-fluorophenyl)pyridin-3-yl)imidazo[1,2-a]pyridine]	0.172
Cc1cc(-c2ncccc2-c2ccc3ncc(N(C)C)n3c2)ccc1F [compound 551, 6-(2-(4-Fluoro-3-methylphenyl)pyridin-3-yl)-N,N-dimethylimidazo[1,2-a]pyridin-3-amine]	4.88
Cc1cccc(-c2cccnc2-c2ccc3[nH]ncc3c2)n1 [compound 517, 5-(6-Methyl-[2,3′-bipyridin]-2′-yl)-1H-indazole]	1.17
FC(F)Oc1cccc(-c2ncccc2-c2ccn3ncnc3c2)c1 [compound 883, 7-(2-(3-(Difluoromethoxy)phenyl)pyridin-3-yl)-[1,2,4]triazolo[1,5-a]pyridine]	0.512
Fc1ccccc1-c1ncccc1-c1ccc2[nH]ncc2c1 [Compound 61, 5-(2-(2-Fluorophenyl)pyridin-3-yl)-1H-indazole]	3.88
Cc1cc(-c2ncccc2-c2ccc3ncc(C(=O)NC4CCOCC4)n3c2)ccc1F [compound 593, 6-(2-(4-Fluoro-3-methylphenyl)pyridin-3-yl)-N-(tetrahydro-2H-pyran-4-yl)imidazo[1,2-a]pyridine-3-carboxamide]	1.86
COc1cc(-c2ncccc2-c2cnc3[nH]ncc3c2)ccc1F [Compound 157, 5-(2-(4-Fluoro-3-methoxyphenyl)pyridin-3-yl)-1H-pyrazolo[3,4-b]pyridine]	1.56

Compound	IC50 [µM]
COc1cccc(-c2ncccc2-c2cnc3[nH]ncc3c2)c1 [Compound 155, 5-(2-(3-Methoxyphenyl)pyridin-3-yl)-1H-pyrazolo[3,4-b]pyridine]	0.224
Fc1ccc(Cl)cc1-c1ncccc1-c1ccc2ncsc2c1 [compound 717, 6-(2-(5-Chloro-2-fluorophenyl)pyridin-3-yl)benzo[d]thiazole]	0.217
Fc1cc(F)c(-c2ncccc2-c2ccc3ncsc3c2)cc1F [compound 693, 6-(2-(2,4,5-Trifluorophenyl)pyridin-3-yl)benzo[d]thiazole]	0.507
Cc1cccc(-c2nc(N)ccc2-c2ccc3[nH]ncc3c2)c1 [Compound 23, 5-(1H-Indazol-5-yl)-6-m-tolylpyridin-2-amine]	2.25
Cc1ccc(Oc2ncnc3ccc(-c4cccnc4-c4ccc(F)c(Cl)c4)cc23)cn1 [compound 437, 6-(2-(3-Chloro-4-fluorophenyl)pyridin-3-yl)-4-((6-methylpyridin-3-yl)oxy)quinazoline]	0.739
Cc1cc(-c2ncc(NCc3ccc(O)cc3)cc2-c2ccc3ncsc3c2)ccc1F [compound 333, 4-(((5-(Benzo[d]thiazol-6-yl)-6-(4-fluoro-3-methylphenyl)pyridin-3-yl)amino)methyl)phenol]	0.376
Cc1cccc(-c2ncccc2-c2ccc3[nH]ncc3c2)c1 [Compound 68, 5-(2-m-Tolylpyridin-3-yl)-1H-indazole]	0.186
CCOCCCn1cnc2ccc(-c3cccnc3-c3ccc(F)c(C)c3)cc21 [Compound 42, 1-(3-Ethoxypropyl)-6-(2-(4-fluoro-3-methylphenyl)pyridin-3-yl)-1H-benzo[d]imidazole]	10.5
Cc1cccc(-c2ncccc2-c2ccc3c(=O)nc[nH]c3c2)c1 [compound 349, 7-(2-(m-Tolyl)pyridin-3-yl)quinazolin-4(1H)-one]	1.01
Cc1cc(-c2ncccc2-c2ccc3ncc(C(=O)NCCN4CCCC4)n3c2)ccc1F [compound 610, 6-(2-(4-Fluoro-3-methylphenyl)pyridin-3-yl)-N-(2-(pyrrolidin-1-yl)ethyl)imidazo[1,2-a]pyridine-3-carboxamide]	0.648
Cc1ccc(F)c(-c2ncccc2-c2ccn3ncnc3c2)c1 [compound 737, 7-(2-(2-Fluoro-5-methylphenyl)pyridin-3-yl)-[1,2,4]triazolo[1,5-a]pyridine]	0.26
FC(F)(F)c1cccc(-c2ncccc2-c2cnc3[nH]ncc3c2)c1 [Compound 198, 5-(2-(3-(Trifluoromethyl)phenyl)pyridin-3-yl)-1H-pyrazolo[3,4-b]pyridine]	0.44
Nc1ccc(-c2ccc3[nH]ncc3c2)c(-c2cccc(C3CC3)c2)n1 [Compound 22, 6-(3-Cyclopropylphenyl)-5-(1H-indazol-5-yl)pyridin-2-amine]	1.41
Cc1cc(-c2ncc(N)cc2-c2ccc3nccnc3c2)ccc1F [compound 239, 6-(4-Fluoro-3-methylphenyl)-5-(quinoxalin-6-yl)pyridin-3-amine]	0.266
CCCC(=O)Nc1cnc(-c2ccc(F)c(C)c2)c(-c2ccc3ncsc3c2)c1 [compound 316, N-(5-(Benzo[d]thiazol-6-yl)-6-(4-fluoro-3-methylphenyl)pyridin-3-yl)butyramide]	6.39
Cc1cccc(-c2ncccc2-c2ccc3ncn(CCCN4CCN(C)CC4)c3c2)c1 [compound 251, 1-(3-(4-Methylpiperazin-1-yl)propyl)-6-(2-m-tolylpyridin-3-yl)-1H-benzo[d]imidazole]	17.8
Cc1cccc(-c2ncccc2-c2ccn3ncnc3c2)c1 [compound 732, 7-(2-(m-Tolyl)pyridin-3-yl)-[1,2,4]triazolo[1,5-a]pyridine]	0.258
Cc1cc(-c2ncccc2-c2ccc3nccn3n2)ccc1F [compound 934, 6-(2-(4-Fluoro-3-methylphenyl)pyridin-3-yl)imidazo[1,2-b]pyridazine]	0.41
Cc1cccc(-c2ncccc2-c2ccc3ncc(CN4CCOCC4)n3c2)c1 [compound 570, 4-((6-(2-(m-Tolyl)pyridin-3-yl)imidazo[1,2-a]pyridin-3-yl)methyl)morpholine]	5.9
